Data on two molecules can be found in patent US11084847B2, “Polyamide compound and use thereof” (SICHUAN KELUN-BIOTECH BIOPHARMACEUTICAL CO., LTD., priority 2016, dated 2021).

Like-named read-outs stand apart in the source and are kept apart here.

A short description of data set [1]: Ability of compounds to pass through the blood-brain barrier (plasma and brain tissue concentration). The data set is classed as in vivo. To be noted: rat, male rats, iv 1 mg/kg; for concentration at 5 min: 5 min after administration; for concentration at 15 min: 15 min after administration; for concentration at 30 min: 30 min after administration; for concentration at 60 min: 60 min after administration. On the procedure: After peripheral intravenous administration of the compound of each Example to the animal, samples of peripheral plasma and brain tissue were taken to determine the concentration of the compound in the peripheral plasma and brain tissue.
After intravenously injected with the compound of Example 5 at 1 mg/kg to male rats, samples of plasma and brain tissues were taken at various time points, and the contents of the test compound in the peripheral plasma and brain tissue were determined.

The next data set concerns male ICR mice. Description: Acetic acid-induced writhing test in mice. It is filed as in vivo. The arrangement: ED50: unit not given here. To be noted: for analgesic effect (in words): acetic acid-induced writhing, mice, iv; for ED50: iv administration 15 min before 0.6% acetic acid ip, writhes counted within 15 min. On the procedure: The analgesic effect of the compound of the invention was evaluated by measuring the ED50 of the compounds of Examples in the acetic acid-induced writhing test in mice.
The commercial glacial acetic acid solution was diluted with physiological saline to 0.6% glacial acetic acid solution. The male ICR mice were randomly separated into the drug group and the model group (to which physiological saline was administration). 15 minutes after iv administration, 0.6% acetic acid solution was intraperitoneally injected at 10 ml/kg, and the mice was immediately recorded with DV camera for 15 min. After the recording, the number of writhes of the mice within 15 min was counted from the video by blind method, the inhibition rate for the writhes was calculated according to Formula (I), and the ED50 of the compound was calculated according to Formula (II).
(I) The inhibition rate for the writhes was calculated by the formula: Inhibition rate (%)=(the number of writhes in a model group−the number of writhes in a drug group)/the number of writhes in a model group*100.
(II) The ED50 was calculated by the formula:
[formula] wherein Xm was the logarithm of the highest dose, d was the difference in the logarithm of two adjacent doses, p was the inhibition rate for each dose group, pm was the highest-dose inhibition rate, and pn was the lowest-dose inhibition rate.
(In general: In writhing tests, fewer writhes than in controls are read as antinociception.)

A further data set addresses DOR (Homo sapiens, UniProt P41143). In words: Opioid receptor selectivity, radioligand competition binding (3H-DADLE) on cell membranes. On the procedure:
(§1) The selectivity of the compounds of the invention for κ opioid receptors was determined by measuring the inhibitory effect of the compounds of Examples on the […] of KOR, MOR, and DOR.
(§2) The compounds of Examples at different concentrations were incubated with the cell membrane with high expression of KOR, MOR, DOR and the corresponding radioligand (KOR: 3H-diprenophrine; MOR: 3H-DAMGO; DOR: 3H-DADLE) for 1 h, the compounds of Examples competed with the radioligands for binding to KOR, MOR, DOR. After the incubation, Cell harvest was used to collect cell membranes onto a Unifilter-96 GF/C filter plate, and the unbound radioligands were washed away. The plate was placed in a 50-degree oven for 1 h, and finally the scintillation solution Microscint 20 cocktail was added and the isotope signal was detected by MicroBeta2 Reader.
(§3) According to the intensity of the isotope signal at different concentrations, the IC50 was calculated by means of fitting with a four-parameter equation, and the Ki value was calculated.
(§4) The Ki value was calculated according to the formula Ki=IC50/(1+[radioligand]/Kd), and Kd was the equilibrium dissociation constant of radioligand.
In general terms: Displacement assays read how much labelled ligand stays bound in the presence of the test substance.

Data set [2] can be described thus: Pharmacokinetic (PK) study in rats. It is filed as in vivo. The settings on record: male SD rats, intravenous, 1 mg/kg; for AUC(0-t) / Cmax / Vd / half-life: rat, plasma. The procedure: The pharmacokinetic profile of the compounds of Examples was studied by intravenous administration of the compounds of Examples to male SD rats. The dose for IV administration was 1 mg/kg, and the solvent was 5% DMSO: 5% solutol: 90% physiological saline. After IV administration, blood samples were collected at different time points for PK study. Plasma were treated by protein precipitation and then analyzed by LC-MS/MS.
In LC-MS/MS, mass spectrum was API 5500, and liquid chromatography was Shimadzu LC-30AD system. The column used for the test groups of Compound 3 and Compound 4 was Thermo C18 column (4.6 mm×100 mm, 3 μm); for mobile phases, phase A was water+0.1% formic acid, and phase B was methanol; the flow rate was 0.8 mL/min, and the column temperature was 40° C. The column used for the test group of Compound 5 was Agela AQ C18 column (2.1 mm×50 mm, 1.9 μm); for mobile phases, phase A was water+0.05% formic acid+5 mM acetic acid ammonium, and phase B was methanol+0.05% formic acid; the flow rate was 0.6 mL/min, and the column temperature was 40° C. The ion source used was the ESI source in positive ion mode, and the scanning mode was Multiple Reaction Monitoring (MRM).

A further data set addresses KOR (Homo sapiens, UniProt P41145). Description: Opioid receptor selectivity, radioligand competition binding (3H-diprenophrine) on cell membranes. To be noted: for KOR selectivity (in words): KOR versus MOR and DOR binding. The procedure: as §1, §2, §3, §4
For data set [3], the target named is T1, human κ-opioid receptor (KOR) (Homo sapiens, UniProt P41145).
T1 construct: expressed in transfected cells
Description: κ-opioid receptor agonistic effect (inhibition of adenylate cyclase, cAMP assay). It is filed as cell-based. On the procedure: The efficacy of the compounds of the invention as κ-opioid receptor agonists was determined by measuring the ability of the compounds of Examples to inhibit adenylate cyclase activity.
Cell culture: hamster ovary cells CHO stably expressing human κ-opioid receptor (KOR) gene were cultured in MEMα plus nucleosides medium (Invitrogen) containing 5% FBS.
Stimulation: the test compound was 4-fold diluted in a gradient manner to obtain 11 concentrations, and 100 nl of each was transferred to a 384-well plate, and then a stimulating solution (5 uL) containing NKH477 (Tocris) was added; the cells were digested, re-suspended, and counted; and then the cells (5 uL) were added to wells, mixed gently, and incubated at 37° C. for 30 min.
Detection: cAMP Assay Kit (Cisbio) was used, cAMP-D2 and Anti-cAMP-Cryptate were added separately, and the resultant mixture was incubated for 1 h at room temperature. The plate was read using envision (Perkin Elmer) and EC50 was obtained by means of fitting with a four-parameter equation.
On the technique in general: Changes in cAMP serve as a functional read-out for many G protein-coupled receptors.

The next data set has as its target MOR (Homo sapiens, UniProt P35372). In words: Opioid receptor selectivity, radioligand competition binding (3H-DAMGO) on cell membranes. The procedure:
as §1, §2, §3, §4

Setting [4] is: brain, read-out: Concentration in brain tissue.
The mark [5] stands for this setting: plasma, read-out: Concentration in peripheral plasma.

Broadly, the Ki is a dissociation constant, usually derived from enzyme kinetics or from competition with a known ligand. Broadly, the IC50 is the point on the concentration scale where inhibition reaches its midpoint. Broadly, the AUC(0-t) is exposure summed from dosing to a finite time, without extrapolation to infinity. One may read the Cmax as the maximum level reached in the sampled fluid or tissue. In general, Vd refers to a proportionality between amount in the body and measured concentration, not a real space. Usually half-life stands for how long it takes for the measured level to halve. On to `COCCOCCNCCCC[C@@H](NC(=O)[C@@H](CC(C)C)NC(=O)[C@@H](Cc1ccccc1)NC(=O)[C@H](N)Cc1ccccc1)C(=O)N1CCC(N)(C(=O)O)CC1` [Example 5, 4-amino-1-((R)-2-((R)-2-((R)-2-((R)-2-amino-3-phenylpropanamido)-3-phenylpropanamido)-4-methylpentanamido)-6-((2-(2-methoxyethoxy)ethyl)amino)hexanoyl)piperidin-4-carboxylic acid], for which, in data set [1] (setting [4]), the concentration at 5 min was 0 ng/mL, the concentration at 15 min turned out to be 0 ng/mL, the concentration at 30 min was determined as 0.2 ng/mL and the concentration at 60 min was found to be 0 ng/mL. For the same molecule, in data set [1] (setting [5]), the concentration at 5 min was determined as 1310 ng/mL, the concentration at 15 min is 716 ng/mL, the concentration at 30 min was determined as 386 ng/mL and the concentration at 60 min was 136 ng/mL. Besides, in the data set on male ICR mice, the “analgesic effect (in words)” value is on record as “significant analgesic effect” and the ED50 came out at 0.017. The Ki at DOR (Ki=IC50/(1+[radioligand]/Kd), read-out: DOR Ki) was over 12000 nM. Also, the half-inhibitory concentration (IC50) at DOR (radioligand 3H-DADLE, 1 h incubation, read-out: DOR IC50) was over 20000 nM. In data set [2], the “pharmacokinetic profile (in words)” value was “good exposure amount and Cmax”; the area under the curve AUC(0-t) is 783 ng·h/mL; the Cmax amounted to 1690 ng/mL; the Vd came to 0.53 L/kg. The half-life in data set [2] is 16.8 min. Besides, the “KOR selectivity (in words)” value on KOR was “excellent KOR selectivity”. Besides, the inhibitory constant (Ki) at KOR (Ki=IC50/(1+[radioligand]/Kd), read-out: KOR Ki) stood at 0.02 nM. Moreover, the IC50 on KOR (radioligand 3H-diprenophrine, 1 h incubation, read-out: KOR IC50) was determined as 0.05 nM. For the same molecule, the EC50 in data set [3] (CHO cells stably expressing human KOR, NKH477-stimulated cAMP, four-parameter fit, read-out: ED50 (the source's name)) stood at 0.05 nM. For the same molecule, on MOR (Ki=IC50/(1+[radioligand]/Kd), read-out: MOR Ki), the Ki was over 7180 nM. Besides, the IC50 at MOR (radioligand 3H-DAMGO, 1 h incubation, read-out: MOR IC50) is over 20000 nM.

In the case of `COCCOCCOCCOCCOCCOCCOCCNCCCC[C@@H](NC(=O)[C@@H](CC(C)C)NC(=O)[C@@H](Cc1ccccc1)NC(=O)[C@H](N)Cc1ccccc1)C(=O)N1CCC(N)(C(=O)O)CC1` [Example 6, 4-amino-1-((R)-28-((R)-2-((R)-2-((R)-2-amino-3-phenylpropanamido)-3-phenylpropanamido)-4-methylpentanamido)-2,5,8,11,14,17,20-heptaoxa-23-azanonacosan-29-oyl)piperidin-4-carboxylic acid], in the data set with male ICR mice, the “analgesic effect (in words)” value is listed as “significant analgesic effect” and the ED50 is listed as 0.036. In addition, at DOR, the IC50 was over 20000 nM and the Ki was over 12000 nM. In data set [2], the “pharmacokinetic profile (in words)” value is “good exposure amount and Cmax”; the AUC(0-t) was 2180 ng·h/mL; the Cmax was determined as 3660 ng/mL; the volume of distribution (Vd) stood at 0.2 L/kg. The same molecule showed a half-life in data set [2] of 17.4 min. Moreover, on KOR, the IC50 turned out to be 0.33 nM, the inhibition constant Ki is 0.11 nM and the “KOR selectivity (in words)” value was “excellent KOR selectivity”. This molecule came in with an EC50 in data set [3] of 0.11 nM. In addition, on MOR, the concentration for half-maximal inhibition (IC50) is over 20000 nM and the inhibitory constant (Ki) is over 7180 nM.
